Results reported in ChEMBL document CHEMBL1201862, “PubChem BioAssay data set” (2004).
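Protocol summary: plate cells (96-well), add compound at 5 concentrations, incubate 48 h, interpolate endpoints linearly. GI50 marks 50% less growth.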 Activity calls are given as the source filed them. Cut-off read from the data, not from the text of the source: active = GI50 up to about 1.1 µM and inactive = higher.

Experiments:
Test in all cases: NCI tumour cell line growth inhibition, 48 h
SF-268 = test system: SF-268
LOX IMVI = test system: LOX IMVI
SK-MEL-5 = test system: SK-MEL-5
RPMI-8226 = test system: RPMI-8226
IGROV-1 = test system: IGROV-1
NCI-H23 = test system: NCI-H23
SNB-75 = test system: SNB-75
RXF 393 = test system: RXF 393
Malme-3M = test system: Malme-3M
SNB-19 = test system: SNB-19
786-0 = test system: 786-0
SF-539 = test system: SF-539
UACC-62 = test system: UACC-62
EKVX = test system: EKVX
HCT-116 = test system: HCT-116
SK-MEL-28 = test system: SK-MEL-28
HL-60 = test system: HL-60
DMS-114 = test system: DMS-114
SN12C = test system: SN12C

Measured: GI50

CN(C)C(=N)NC(=S)N(C)C
inactive: SF-268 > 100 µM | LOX IMVI > 100 µM | SK-MEL-5 > 100 µM | RPMI-8226 > 100 µM | IGROV-1 > 100 µM | NCI-H23 > 100 µM | SNB-75 > 100 µM | RXF 393 > 100 µM | Malme-3M > 100 µM | SNB-19 > 100 µM | 786-0 > 100 µM | SF-539 > 100 µM | UACC-62 > 100 µM | EKVX > 100 µM | HCT-116 > 100 µM | SK-MEL-28 > 100 µM | HL-60 > 100 µM | DMS-114 > 100 µM | SN12C > 100 µM

C/C(=N\O)C(CN(C)C)C(c1ccccc1)c1c(O)c2ccccc2oc1=O (stereo unspecified)
inactive: SF-268 > 100 µM | LOX IMVI > 100 µM | SK-MEL-5 > 100 µM | RPMI-8226 > 100 µM | IGROV-1 > 100 µM | NCI-H23 > 100 µM | SNB-75 > 100 µM | RXF 393 > 100 µM | Malme-3M > 100 µM | SNB-19 > 100 µM | 786-0 > 100 µM | SF-539 > 100 µM | UACC-62 > 100 µM | EKVX > 100 µM | HCT-116 > 100 µM | SK-MEL-28 > 100 µM | HL-60 > 100 µM | DMS-114 > 100 µM | SN12C > 100 µM

Cc1cc(C)nc(NS(=O)(=O)c2ccc(NC(=O)COC(=O)c3cccc4c(=O)c5ccccc5[nH]c34)cc2)n1
inactive: SF-268 37.7 µM | LOX IMVI 20.5 µM | SK-MEL-5 40.6 µM | RPMI-8226 35.7 µM | IGROV-1 43.5 µM | NCI-H23 29.7 µM | SNB-75 31 µM | RXF 393 36.5 µM | Malme-3M 26.7 µM | SNB-19 26.8 µM | 786-0 19.1 µM | SF-539 19.5 µM | UACC-62 19.5 µM | EKVX 54.2 µM | HCT-116 23.7 µM | SK-MEL-28 31.7 µM | HL-60 26.9 µM | DMS-114 56.5 µM | SN12C 40.4 µM

O=S1(=O)C[C@@H](O)[C@H](O)CS1
inactive: SF-268 > 100 µM | LOX IMVI > 100 µM | SK-MEL-5 > 100 µM | RPMI-8226 > 100 µM | IGROV-1 > 100 µM | NCI-H23 > 100 µM | SNB-75 > 100 µM | RXF 393 > 100 µM | Malme-3M > 100 µM | SNB-19 > 100 µM | 786-0 > 100 µM | SF-539 > 100 µM | UACC-62 > 100 µM | EKVX > 100 µM | HCT-116 > 100 µM | SK-MEL-28 > 100 µM | HL-60 > 100 µM | DMS-114 > 100 µM | SN12C > 100 µM
